Assay results reported in article PMC6560211, “ApoAI-derived peptide increases glucose tolerance and prevents formation of atherosclerosis in mice” (Diabetologia, 2019).
No end group written: not given here.

Legend:
[1] = Peptide homogeneity (particle size) by dynamic light scattering; assay type: physicochemical
Experimental: (§1) Peptide (lyophilised powder) produced by Red Glead (Lund, Sweden) was reconstituted in Milli-Q water and then either used directly or mixed in a 1:1 ratio with 6 mol/l guanidine HCl in 2× PBS to give a monodisperse solution, followed by desalting using a column equilibrated with PBS, pH 7.4, using ÄKTAxpress fast protein LC (GE Healthcare, Uppsala, Sweden). Peptide integrity was analysed using circular dichroism spectroscopy. Peptide solubility was assayed at Red Glead using HPLC. Peptide stability in physiologic buffer or blood plasma (human or mouse) over 2 h was assayed at the Science for Life Laboratory (Uppsala, Sweden). For detailed methods, please refer to the electronic supplementary material (ESM) Methods.
(§2) The peptide RG54 was synthesised with natural amino acids and then modified with an acetylation cap on the N-terminus in order to reduce the susceptibility for proteolytic degradation by […] (ESM Fig. 3a). […] Peptide integrity following the denaturation/refolding procedure was confirmed using gel electrophoresis and circular dichroism spectroscopy analyses (ESM Fig. 3d,e) and by peptide stability assays (buffer or plasma) (ESM Fig. 3f).
ESM Figure 3. Peptide characterization for native or refolded RG54.
(a) Full peptide sequence. Particle size distribution of RG54 was analysed by DLS and frequency curves generated for Native (b) or Refolded (c) peptide. […]

[2] = Peptide solubility by HPLC; assay type: physicochemical; details: reconstituted RG54 peptide; assayed using HPLC
Experimental: as §1, §2

Apoe−/− mice = assay: Atherosclerosis model, western diet; assay type: in vivo, mouse; details: female Apoe−/− mice, i.p. three times a week for 6 weeks, RG54 12 mg/kg, ApoA-I 14 mg/kg, liraglutide 0.3 mg/kg, Oil Red O, n=9, vs NaCl
From the text: Female Apoe^−/− mice (002052, Jackson Laboratory, Bar Harbor, ME, USA) at 12 weeks of age were acclimatised for 1 week, then changed to the RD western diet (D12079B) and injected i.p. three times per week for 6 weeks with treatments as indicated in ESM Fig. 1. At the end of the experimental period, the mice were euthanised and whole aortas were collected, fixed and stained for analysis. See ESM Methods for more details.
Apoe^−/− mice, which develop aortic atherosclerosis, were used to test if RG54 reduces the formation of atherosclerotic plaques in vivo. Apoe^−/− mice were obtained at 12 weeks of age and acclimatised for 1 week, after which baseline body weights, dual-energy x-ray absorptiometry body scans and serum samples were collected. […] Serum lipid profiles were measured at the start and end of the experimental period (ESM Fig. 5).
Fig. 2 Effect of ApoA-I or RG54 treatment on early, low-burden atherosclerotic lesion development in Apoe^−/− mice. […] (a) Body weight was measured weekly (n=9). […] (d–f) After euthanasia the aortic arch and abdominal aorta were removed, fixed and prepared en face, then atherosclerotic plaques were stained using Oil Red O. Representative aorta images (d) shown as raw images and images analysed for Oil Red O stained areas. […] Stained areas were then quantified to give the total plaque area (e) and total plaques per aorta (f) (n=9). […]

In the case of “Ac-AEYHAKATEHLSTLSEKAKPALEDLRQGLLPVLESFKVSFLSALEEYTKKLNTQ [RG54]”, the “homogeneity (DLS) after chemical denaturation and refolding” value ([1]; 6 mol/l guanidine HCl in 2x PBS 1:1, desalted into PBS pH 7.4) is reported as “monodisperse preparations”, the “homogeneity, dynamic size range (DLS)” value ([1]; native peptide reconstituted in Milli-Q water, five individual experiments) is reported as “significant inter- and intra-sample heterogeneity” and the solubility [2] is reported as > 3000 µg/mL. The “number of plaques per mouse” value (Apoe−/− mice) was “significantly reduced” and the “total plaque area (percentage of the aortic surface)” value (Apoe−/− mice) was “significantly reduced”.
